# Results taken from patent US5658928A, “Amino acid derivatives” (Hoffmann-La Roche Inc., priority 1991, dated 1997).
# Experiments:
# [1] = target: T1, fibrinogen receptor, glycoprotein IIb/IIIa (Homo sapiens, UniProt P05106+P08514); experiment: inhibition of the binding of fibrinogen to the immobilized fibrinogen receptor, glycoprotein IIb/IIIa (ELISA); conditions: concentration required to inhibit the binding of fibrinogen to the immobilized receptor by 50%
# T1 construct: The glycoprotein IIb/IIIa is obtained from Triton X-100 extracts of human blood platelets; from tissue; host or cells: human blood platelets (Triton X-100 extract)
# Method: The glycoprotein IIb/IIIa is obtained from Triton X-100 extracts of human blood platelets and purified by lectin affinity chromatography (Analytical Biochemistry 151, 1985, 169-177) and chromatography on an Arg-Gly-Asp-Ser affinity column (Science 231, 1986, 1559-62). The thus-obtained receptor protein is bonded to microtiter plates. The specific binding of fibrinogen to the immobilized receptor is determined with the aid of an ELISA system ("enzyme-linked immunosorbent assay"). The IC50 values hereinafter correspond to that concentration of the test substance which is required to inhibit the binding of fibrinogen to the immobilized receptor by 50%: […]
# in vivo = conditions: iv, i.v. in the mouse
# Description: These compounds have low toxicity.
# T1 sequence (P08514 32-887 limits assumed): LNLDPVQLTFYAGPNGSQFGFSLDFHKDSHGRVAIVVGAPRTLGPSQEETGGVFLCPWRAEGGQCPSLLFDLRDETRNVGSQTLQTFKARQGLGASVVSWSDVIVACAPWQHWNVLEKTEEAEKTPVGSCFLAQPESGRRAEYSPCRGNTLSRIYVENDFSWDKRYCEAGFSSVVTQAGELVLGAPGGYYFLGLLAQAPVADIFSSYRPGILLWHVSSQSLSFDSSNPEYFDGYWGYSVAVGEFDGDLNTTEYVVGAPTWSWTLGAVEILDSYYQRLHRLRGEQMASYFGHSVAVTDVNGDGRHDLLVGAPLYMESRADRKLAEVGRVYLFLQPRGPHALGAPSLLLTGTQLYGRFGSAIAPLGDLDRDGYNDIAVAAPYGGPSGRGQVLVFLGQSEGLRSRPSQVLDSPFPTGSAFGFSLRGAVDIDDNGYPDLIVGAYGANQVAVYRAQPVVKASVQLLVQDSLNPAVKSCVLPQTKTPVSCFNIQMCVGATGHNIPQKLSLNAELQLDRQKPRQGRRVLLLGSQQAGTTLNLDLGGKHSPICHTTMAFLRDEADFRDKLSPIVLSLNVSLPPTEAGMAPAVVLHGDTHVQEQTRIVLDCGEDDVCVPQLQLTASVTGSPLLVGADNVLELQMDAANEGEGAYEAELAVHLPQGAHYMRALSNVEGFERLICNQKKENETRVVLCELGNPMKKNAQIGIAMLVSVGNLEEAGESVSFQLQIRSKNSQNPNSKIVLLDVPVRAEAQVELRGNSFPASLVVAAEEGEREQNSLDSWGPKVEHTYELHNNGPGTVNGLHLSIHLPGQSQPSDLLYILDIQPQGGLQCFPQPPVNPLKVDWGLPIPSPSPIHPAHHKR
# T1 sequence (P08514 891-1039 partner limits assumed): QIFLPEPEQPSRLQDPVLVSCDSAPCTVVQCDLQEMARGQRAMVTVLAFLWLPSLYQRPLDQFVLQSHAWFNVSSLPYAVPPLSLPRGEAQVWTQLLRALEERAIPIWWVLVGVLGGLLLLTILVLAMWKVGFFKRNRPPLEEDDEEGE
# T1 sequence (P05106 27-788): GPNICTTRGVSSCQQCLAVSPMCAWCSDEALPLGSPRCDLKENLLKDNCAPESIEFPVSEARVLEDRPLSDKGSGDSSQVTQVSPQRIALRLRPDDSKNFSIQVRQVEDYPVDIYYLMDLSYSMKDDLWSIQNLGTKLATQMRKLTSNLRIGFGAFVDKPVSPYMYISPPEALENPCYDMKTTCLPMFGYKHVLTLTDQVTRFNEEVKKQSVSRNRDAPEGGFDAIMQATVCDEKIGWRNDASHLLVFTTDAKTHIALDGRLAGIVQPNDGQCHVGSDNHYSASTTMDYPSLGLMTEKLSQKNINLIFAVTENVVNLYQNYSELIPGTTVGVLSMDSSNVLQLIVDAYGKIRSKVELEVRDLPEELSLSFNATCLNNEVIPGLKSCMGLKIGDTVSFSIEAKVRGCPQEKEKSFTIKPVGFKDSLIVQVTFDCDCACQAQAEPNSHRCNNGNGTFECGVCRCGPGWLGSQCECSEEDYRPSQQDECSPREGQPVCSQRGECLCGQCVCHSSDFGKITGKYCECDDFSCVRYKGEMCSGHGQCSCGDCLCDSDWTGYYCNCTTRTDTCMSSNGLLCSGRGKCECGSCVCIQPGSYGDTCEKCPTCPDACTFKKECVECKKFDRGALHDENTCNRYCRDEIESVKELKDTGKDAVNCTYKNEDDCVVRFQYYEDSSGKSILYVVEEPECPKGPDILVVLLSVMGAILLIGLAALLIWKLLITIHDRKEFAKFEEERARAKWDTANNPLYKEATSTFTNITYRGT
Compound,IC50 [1],LD50 (in vivo)
"N=C(N)c1ccc(C(=O)NCC(=O)N2CCC(OCC(=O)O)CC2)cc1 [Example 1, [[1-[N-(p-amidinobenzoyl)glycyl]-4-piperidinyl]oxy]acetic acid]",10 µM,
"C[C@H](NC(=O)c1ccc(C(=N)N)cc1)C(=O)N1CCC(OCC(=O)O)CC1 [Example 3, [[1-[N-(p-amidinobenzoyl)-L-alanyl]-4-piperidinyl]oxy]acetic acid]",1.7 µM,250 mg/kg
"C[C@@H](NC(=O)c1ccc(C(=N)N)cc1)C(=O)N1CCC(OCC(=O)O)CC1 [Example 4, [[1-[N-(p-amidinobenzoyl)-D-alanyl]-4-piperidinyl]oxy]acetic acid]",140 µM,
"C[C@H](NC(=O)c1ccc(C(=N)N)cn1)C(=O)N1CCC(OCC(=O)O)CC1 [Example 5, [[1-[N-[(5-amidino-2-pyridyl)carbonyl]-L-alanyl]-4-piperidinyl]oxy]acetic acid]",1 µM,500 mg/kg
"CC(C)[C@H](NC(=O)c1ccc(C(=N)N)cc1)C(=O)N1CCC(OCC(=O)O)CC1 [Example 6, [[1-[N-(p-amidinobenzoyl)-L-valyl]-4-piperidinyl]oxy]-acetic acid]",27 µM,
"CC(C)C[C@H](NC(=O)c1ccc(C(=N)N)cc1)C(=O)N1CCC(OCC(=O)O)CC1 [Example 7, [[1-[N-(p-amidinobenzoyl)-L-leucyl]-4-piperidinyl]oxy]acetic acid]",33 µM,
"N=C(N)c1ccc(C(=O)N[C@@H](Cc2ccc(O)cc2)C(=O)N2CCC(OCC(=O)O)CC2)cc1 [Example 14, [[1-[N-(p-amidinobenzoyl)-L-tyrosil]-4-piperidinyl]oxy]acetic acid]",,250 mg/kg
